For 25 compounds, Ki results are on record in patent publication US9561231B2 (AbbVie Inc., priority 2012, dated 2017).

In general, Ki refers to a measure of affinity in units of concentration, obtained from inhibition or displacement.

Assay [1] has as its target T1, first (BD1: amino acids K57-E168) bromodomain of BRD4 (Homo sapiens, UniProt O60885).
T1 construct: His-tagged first (BD1: amino acids K57-E168)
The assay can be described thus: TR-FRET bromodomain binding assay, BRD4 BD1. Particulars: Ki calculated from IC50, probe Kd and probe concentration, read-out: TR-FRET Binding Ki: BRD4 (BDI_K57-E168). The procedure:
(§1) A time-resolved fluorescence resonance energy transfer (TR-FRET) assay was used to determine the affinities of compounds of the Examples listed in Table 1 for each bromodomain of BRD4. His-tagged first (BD1: amino acids K57-E168) and second (BD2: amino acids E352-E168) bromodomains of BRD4 were expressed and purified. An Alexa647-labeled BET-inhibitor was used as the fluorescent probe in the assay.
(§2) Compound dilution series were prepared in DMSO via an approximately 3-fold serial dilution from one of the following:
(§3) or 5-fold serial dilution from one of the following:
(§4) Assay method A: 2.5 mM-800 nM
(§5) For Assay methods A, C, D, and F: Compounds were then diluted 6:100 in assay buffer (20 mM Sodium Phosphate, pH 6.0, 50 mM NaCl, 1 mM Ethylenediaminetetraacetic acid, 0.01% Triton X-100, 1 mM DL-Dithiothreitol) to yield 3× working solutions. […] of this solution were added to the assay plate to reach a final volume of 18 μL.
(§6) TR-FRET data were normalized to the means of 24 no-compound controls (“high”) and 8 controls containing 1 μM un-labeled probe (“low”). Percent inhibition was plotted as a function of compound concentration and the data were fit with the 4 parameter logistic equation to obtain IC50s. Inhibition constants (Ki) were calculated from the IC50s, probe Kd and probe concentration. Typical Z′ values were between 0.65 and 0.75.

Assay [2] deals with T2, second (BD2: amino acids E352-E168) bromodomain of BRD4 (Homo sapiens, UniProt O60885).
T2 construct: protocol
The experiment in a line: TR-FRET bromodomain binding assay, BRD4 BD2. Particulars: Ki calculated from IC50, probe Kd and probe concentration, read-out: TR-FRET Binding Ki: BRD4 (BDII_E352-M457). The procedure:
as §1, §2, §3, §4, §5, §6

The mark [3] stands for this setting: TR-FRET assay protocol (A-G, compound concentration range).
Setting [4] is: TR-FRET assay protocol (D, E or G) per compound.

Where two headings read alike, the source gives them in different places.

For `CCOc1cc(=O)n(C)cc1-c1cc(NCCC(C)(C)C)ccc1Oc1ccc(F)cc1F` [Example 306, 5-{2-(2,4-difluorophenoxy)-5-[(3,3-dimethylbutyl)amino]phenyl}-4-ethoxy-1-methylpyridin-2(1H)-one], the Ki was 0.542 µM in assay [1] (setting [3]) and 0.349 µM in assay [2] (setting [3]). On to `CC(=O)c1cccc(-c2cc(=O)n(C)nc2-c2ccccc2Oc2ccccc2)c1` [Example 201, 5-(3-acetylphenyl)-2-methyl-6-(2-phenoxyphenyl)pyridazin-3(2H)-one], for which the inhibition constant Ki was 2.41 µM in assay [1] (setting [3]) and 1.71 µM in assay [2] (setting [3]). Consider `CCOc1cc(=O)n(C)cc1-c1cc(NCC(C)(C)C)ccc1Oc1ccc(F)cc1F` [Example 305, 5-{2-(2,4-difluorophenoxy)-5-[(2,2-dimethylpropyl)amino]phenyl}-4-ethoxy-1-methylpyridin-2(1H)-one], for which the Ki in assay [1] (setting [3]) is 0.557 µM; in assay [2] (setting [3]), 0.271 µM. On to `Cn1nc(-c2ccccc2-c2cccc(C#N)c2)ccc1=O` [Example 53, 2′-(1-methyl-6-oxo-1,6-dihydropyridazin-3-yl)biphenyl-3-carbonitrile], for which the figures for the Ki in assay [1] (setting [3]) and in assay [2] (setting [3]) were over 11.5 µM and over 14.3 µM, respectively. In the same order, the values of `Cn1nc(-c2ccccc2Oc2ccccc2)c(-c2ccc(N3CCOCC3)nc2)cc1=O` [Example 179, 2-methyl-5-[6-(morpholin-4-yl)pyridin-3-yl]-6-(2-phenoxyphenyl)pyridazin-3(2H)-one] are 0.923 µM and 0.488 µM.

On to `Cn1cc(-c2cc(S(C)(=O)=O)ccc2NCC2CC2)c(OC(C)(C)C(C)(C)O)cc1=O` [Example 341, 5-{2-[(cyclopropylmethyl)amino]-5-(methylsulfonyl)phenyl}-4-[(3-hydroxy-2,3-dimethylbutan-2-yl)oxy]-1-methylpyridin-2(1H)-one], for which the Ki in assay [1] (setting [3]) was over 2.38 µM; in assay [2] (setting [3]), over 4.08 µM. Take `CCOc1ccc(-c2cc(=O)n(C)nc2-c2ccccc2Oc2ccccc2)cc1F` [Example 107, 5-(4-ethoxy-3-fluorophenyl)-2-methyl-6-(2-phenoxyphenyl)pyridazin-3(2H)-one]: the Ki in assay [1] (setting [3]) is 1.76 µM; in assay [2] (setting [3]), 2.58 µM. For the compound `CN(C)C(=O)c1cncc(-c2cc(=O)n(C)nc2-c2ccccc2Oc2ccccc2)c1` [Example 215, N,N-dimethyl-5-[1-methyl-6-oxo-3-(2-phenoxyphenyl)-1,6-dihydropyridazin-4-yl]pyridine-3-carboxamide], the Ki in assay [2] (setting [3]) was 11.8 µM.

Take `CN1CCN(c2ncc(-c3cc(=O)n(C)nc3-c3ccccc3Oc3ccccc3)cn2)CC1` [Example 188, 2-methyl-5-[2-(4-methylpiperazin-1-yl)pyrimidin-5-yl]-6-(2-phenoxyphenyl)pyridazin-3(2H)-one]: the inhibition constant Ki in assay [1] (setting [3]) is 0.67 µM; in assay [2] (setting [3]) it was 1.13 µM. As to `CNS(=O)(=O)c1ccc(-c2cc(=O)n(C)nc2-c2ccccc2Oc2ccccc2)cc1` [Example 159, N-methyl-4-[1-methyl-6-oxo-3-(2-phenoxyphenyl)-1,6-dihydropyridazin-4-yl]benzenesulfonamide], the Ki in assay [1] (setting [3]) is 5.45 µM; in assay [2] (setting [3]), 8.42 µM. In the same order, the values of `Cn1nc(-c2ccccc2Oc2ccccc2)c(-c2cncc3ccccc23)cc1=O` [Example 118, 5-(isoquinolin-4-yl)-2-methyl-6-(2-phenoxyphenyl)pyridazin-3(2H)-one] are over 13 µM and 17.2 µM.

Regarding `Cn1nc(-c2ccccc2Oc2ccccc2)c(-c2ccc(S(=O)(=O)N3CCCC3)cc2)cc1=O` [Example 178, 2-methyl-6-(2-phenoxyphenyl)-5-[4-(pyrrolidin-1-ylsulfonyl)phenyl]pyridazin-3(2H)-one], the Ki in assay [1] (setting [3]) is 3.34 µM; in assay [2] (setting [3]), 4.54 µM. The corresponding values for `Cn1cc(-c2cc(Nc3ccccn3)ccc2Oc2ccccc2)ccc1=O` [Example 254, 1-methyl-5-[2-phenoxy-5-(pyridin-2-ylamino)phenyl]pyridin-2(1H)-one] are 0.324 µM and 3.27 µM. Turning to `CCS(=O)(=O)c1ccc(Oc2ccc(F)cc2F)c(-c2cn(C)c(=O)cc2OCC(F)(F)F)c1` [Example 398], the Ki was 0.203 µM in assay [1] (setting [4]) and 0.0309 µM in assay [2] (setting [4]). Consider `Cn1nc(-c2ccccc2-c2ccccc2)ccc1=O` [Example 52, 6-(biphenyl-2-yl)-2-methylpyridazin-3(2H)-one], for which the Ki in assay [1] (setting [3]) was 9 µM; in assay [2] (setting [3]) it was 10.5 µM. As to `Cn1cc(-c2cc(NS(C)(=O)=O)ccc2Oc2ccc(F)cc2F)c(Cl)cc1=O` [Example 269, N-[3-(4-chloro-1-methyl-6-oxo-1,6-dihydropyridin-3-yl)-4-(2,4-difluorophenoxy)phenyl]methanesulfonamide], the results for the Ki in assay [1] (setting [3]) and in assay [2] (setting [3]) were 0.246 µM and 0.204 µM, respectively. Take `CC(=O)Nc1cccc(-c2cc(=O)n(C)nc2-c2ccccc2Oc2ccccc2)c1` [Example 106, N-{3-[1-methyl-6-oxo-3-(2-phenoxyphenyl)-1,6-dihydropyridazin-4-yl]phenyl}acetamide]: the inhibition constant (Ki) was 0.176 µM in assay [1] (setting [3]) and 0.925 µM in assay [2] (setting [3]).

`CCOc1cc(=O)n(C)cc1-c1cc(NC(=O)c2cnc(C)cn2)ccc1Oc1ccc(F)cc1F` [Example 414, N-[4-(2,4-difluorophenoxy)-3-(4-ethoxy-1-methyl-6-oxo-1,6-dihydropyridin-3-yl)phenyl]-5-methylpyrazine-2-carboxamide]: the inhibition constant (Ki) in assay [1] (setting [4]) is 0.0614 µM; in assay [2] (setting [4]), 0.0389 µM. As for `Cc1nnc(-c2cccc(-c3cc(=O)n(C)nc3-c3ccccc3Oc3ccccc3)c2)o1` [Example 176, 2-methyl-5-[3-(5-methyl-1,3,4-oxadiazol-2-yl)phenyl]-6-(2-phenoxyphenyl)pyridazin-3(2H)-one], the Ki in assay [1] (setting [3]) was 3.66 µM; in assay [2] (setting [3]) it was 2.08 µM. On to `Cc1cc(-c2ccc(-c3ccc(=O)n(C)c3)c(OCC3CC3)c2)[nH]n1` [Example 312, 5-[2-(cyclopropylmethoxy)-4-(3-methyl-1H-pyrazol-5-yl)phenyl]-1-methylpyridin-2(1H)-one], for which the Ki in assay [1] (setting [3]) was 0.353 µM; in assay [2] (setting [3]), 2.15 µM.

As for `CCS(=O)(=O)c1ccc(Oc2ccc(F)cc2F)c(-c2cn(C)c(=O)cc2Oc2ccc(F)cc2F)c1` [Example 317, 4-(2,4-difluorophenoxy)-5-[2-(2,4-difluorophenoxy)-5-(ethylsulfonyl)phenyl]-1-methylpyridin-2(1H)-one], the values for the Ki in assay [1] (setting [3]) and in assay [2] (setting [3]) were 0.377 µM and 0.182 µM, respectively. For `Cn1nc(-c2ccccc2Oc2ccccc2)c(C2=CCN(S(C)(=O)=O)CC2)cc1=O` [Example 85, 2-methyl-5-[1-(methylsulfonyl)-1,2,3,6-tetrahydropyridin-4-yl]-6-(2-phenoxyphenyl)pyridazin-3(2H)-one], the Ki was 1.61 µM in assay [1] (setting [3]) and 0.791 µM in assay [2] (setting [3]). As for `CN(C)CCNC(=O)c1cccc(-c2cc(=O)n(C)nc2-c2ccccc2Oc2ccccc2)c1` [Example 186, N-[2-(dimethylamino)ethyl]-3-[1-methyl-6-oxo-3-(2-phenoxyphenyl)-1,6-dihydropyridazin-4-yl]benzamide], the Ki in assay [1] (setting [3]) was 1.32 µM; in assay [2] (setting [3]), 0.854 µM. `CN1CCC(c2cc(=O)n(C)nc2-c2ccccc2Oc2ccccc2)CC1` [Example 88, 2-methyl-5-(1-methylpiperidin-4-yl)-6-(2-phenoxyphenyl)pyridazin-3(2H)-one]: the Ki in assay [1] (setting [3]) is 6.79 µM. As for `Cn1cccc1-c1cc(=O)n(C)nc1-c1ccccc1Oc1ccccc1` [Example 194, 2-methyl-5-(1-methyl-1H-pyrrol-2-yl)-6-(2-phenoxyphenyl)pyridazin-3(2H)-one], the Ki in assay [2] (setting [3]) is 1.43 µM.
